14 molecules from patent US7524853B2 (Solvay Pharmaceuticals B.V., priority 2003, dated 2009) can be followed below.

Common to all, as to type: cell-based
Assay [1] has as its target T1, 17β-hydroxysteroid dehydrogenase type 1 (17β-HSD type 1) (Homo sapiens, UniProt P14061).
T1 construct: expressed in transfected cells; host or cells: MCF-7
T1 sequence (P14061 1-328): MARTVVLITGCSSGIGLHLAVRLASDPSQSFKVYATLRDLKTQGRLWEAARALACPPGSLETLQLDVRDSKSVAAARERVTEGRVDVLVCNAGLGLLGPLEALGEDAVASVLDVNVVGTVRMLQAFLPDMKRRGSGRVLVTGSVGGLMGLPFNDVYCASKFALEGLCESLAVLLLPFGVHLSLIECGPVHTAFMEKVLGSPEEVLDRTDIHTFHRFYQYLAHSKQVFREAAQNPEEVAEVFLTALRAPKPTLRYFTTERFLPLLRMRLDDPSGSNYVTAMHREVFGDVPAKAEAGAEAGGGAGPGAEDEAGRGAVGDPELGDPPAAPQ
Kind of assay: Inhibition of 17β-HSD type 1 in MCF-7 cells stably expressing the isoenzyme (tritium labeled estrone conversion, HPLC). Conditions: MCF-7 cells expressing 17β-HSD type 1, 2 nM tritium labeled estrone; for inhibition at 1 µM / inhibition at 10 µM: MCF7; for inhibition at 1 µM / % Inhibition HSD1 1 μM: 1 μM test compound; for inhibition at 1 µM: read-out: % Inhibition HSD1 1 μM; for inhibition at 10 µM / % Inhibition HSD1 10 μM: 10 μM test compound; for inhibition at 10 µM: read-out: % Inhibition HSD1 10 μM. The procedure, abridged: (§1)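 Compounds are tested at two concentrations on MCF-7 cells carrying a single 17β-HSD isoenzyme, with 2 nM tritiated estrone, estradiol or androstenedione as type 1, 2 or 3 substrate. Percent inhibition reflects lower conversion relative to a compound-free control.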

The target of assay [2] is T2, 17β-hydroxysteroid dehydrogenase type 3 (17β-HSD type 3) (Homo sapiens, UniProt P37058).
T2 construct: expressed in transfected cells; host or cells: MCF-7
T2 sequence (P37058 1-310): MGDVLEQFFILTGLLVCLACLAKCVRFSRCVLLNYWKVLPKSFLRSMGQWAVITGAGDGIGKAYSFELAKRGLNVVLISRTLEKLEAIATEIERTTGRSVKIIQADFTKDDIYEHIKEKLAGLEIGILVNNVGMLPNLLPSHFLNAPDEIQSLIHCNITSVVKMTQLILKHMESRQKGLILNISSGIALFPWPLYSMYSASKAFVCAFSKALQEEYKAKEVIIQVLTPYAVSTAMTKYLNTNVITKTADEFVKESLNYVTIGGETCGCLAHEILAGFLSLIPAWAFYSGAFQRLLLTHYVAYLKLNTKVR
Kind of assay: Inhibition of 17β-HSD type 3 in MCF-7 cells stably expressing the isoenzyme (tritium labeled androstenedione conversion, HPLC). Conditions: MCF-7 cells expressing 17β-HSD type 3, 2 nM tritium labeled androstenedione; for inhibition at 1 µM / inhibition at 10 µM: MCF7; for inhibition at 1 µM / % Inhibition HSD3 1 μM: 1 μM test compound; for inhibition at 1 µM: read-out: % Inhibition HSD3 1 μM; for inhibition at 10 µM / % Inhibition HSD3 10 μM: 10 μM test compound; for inhibition at 10 µM: read-out: % Inhibition HSD3 10 μM. The procedure, abridged: as §1

For assay [3], the target named is T3, 17β-hydroxysteroid dehydrogenase type 2 (17β-HSD type 2) (Homo sapiens, UniProt P37059).
T3 construct: expressed in transfected cells; host or cells: MCF-7
T3 sequence (P37059 1-387): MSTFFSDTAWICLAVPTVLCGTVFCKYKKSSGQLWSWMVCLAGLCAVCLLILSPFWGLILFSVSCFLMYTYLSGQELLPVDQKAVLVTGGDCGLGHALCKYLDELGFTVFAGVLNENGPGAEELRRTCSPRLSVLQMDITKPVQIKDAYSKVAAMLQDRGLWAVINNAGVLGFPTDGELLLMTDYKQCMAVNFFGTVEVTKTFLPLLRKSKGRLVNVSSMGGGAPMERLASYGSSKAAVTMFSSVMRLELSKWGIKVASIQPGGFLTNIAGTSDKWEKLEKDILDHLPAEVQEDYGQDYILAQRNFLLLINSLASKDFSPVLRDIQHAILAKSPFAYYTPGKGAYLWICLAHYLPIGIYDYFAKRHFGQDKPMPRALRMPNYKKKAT
Nature of the assay: Inhibition of 17β-HSD type 2 in MCF-7 cells stably expressing the isoenzyme (tritium labeled estradiol conversion, HPLC). The settings on record: MCF-7 cells expressing 17β-HSD type 2, 2 nM tritium labeled estradiol; for inhibition at 1 µM / inhibition at 10 µM: MCF7; for inhibition at 1 µM / % Inhibition HSD2 1 μM: 1 μM test compound; for inhibition at 1 µM: read-out: % Inhibition HSD2 1 μM; for inhibition at 10 µM / % Inhibition HSD2 10 μM: 10 μM test compound; for inhibition at 10 µM: read-out: % Inhibition HSD2 10 μM. The procedure, abridged:
as §1

In the case of `CCC(C)Cn1c(-c2cc(OC)c(OC)c(OC)c2)nc2sc3c(c2c1=O)CCCC3` (stereo not drawn) [No. 125, 3-(2-Methylbutyl)-2-(3,4,5-trimethoxyphenyl)-5,6,7,8-tetrahydro-3H-benzo[4,5]thieno[2,3-d]pyrimidin-4-one], the inhibition at 1 µM in assay [1] amounted to 34.7%; in assay [2] it was 10.9%; in assay [3] it was 11.7%. Further, the results for the inhibition at 10 µM in assay [1], in assay [2] and in assay [3] were 49.9%, 21% and 19.8%, respectively.
Take `COc1ccc(-c2nc3sc4c(c3c(=O)n2Cc2ccccc2)CCC(Br)(Br)C4=O)cc1` [No. 147, 3-Benzyl-7,7-dibromo-2-p-methoxyphenyl-6,7-dihydro-3H,5H-benzo[4,5]thieno[2,3-d]pyrimidine-4,8-dione]: the values for the inhibition at 1 µM in assay [1], in assay [2] and in assay [3] were 11.4%, 10.3% and 0.1%, respectively. In addition, the inhibition at 10 µM in assay [1] is 12.5%; in assay [2], 9.1%; in assay [3], 17.2%.
In the case of `CCCc1nc2sc3c(c2c(=O)n1Cc1cc(Br)ccc1OC)CCC(Br)C3=O` (stereo not drawn) [No. 96], the inhibition at 1 µM in assay [1] was found to be 19.5%; in assay [2], 13%; in assay [3] it was 17.2%. The inhibition at 10 µM in assay [1] turned out to be 65.1%; in assay [2], 37.5%; in assay [3], 21.9%.
Take `COc1ccc(-c2nc3sc4c(c3c(=O)n2-c2ccccc2)CCCC4=O)cc1` [No. 23, 3-Phenyl-2-(p-methoxyphenyl)-6,7-dihydro-3H,5H-benzo[4,5]thieno[2,3-d]pyrimidin-4,8-dione]: the inhibition at 1 µM was 18.6% in assay [1], 6.8% in assay [2] and 6.8% in assay [3]. In addition, the inhibition at 10 µM in assay [1] was 45.3%; in assay [2] it was 15.4%; in assay [3], 9.4%.
As to `COc1cccc(-c2nc3sc4c(c3c(=O)n2Cc2ccccc2)CCCC4)c1` [No. 78, 3-Benzyl-2-(m-methoxyphenyl)-5,6,7,8-tetrahydro-3H-benzo[4,5]thieno[2,3-d]pyrimidin-4-one], the inhibition at 1 µM in assay [1] was 7.1%; in assay [2], -4.3%; in assay [3], 9.1%. Besides, the inhibition at 10 µM worked out at 28.5% in assay [1], 27.6% in assay [2] and 7.8% in assay [3].
Turning to `COc1ccc(-c2nc3sc4c(c3c(=O)n2-c2ccccc2)CCCC4)cc1` [No. 22, 3-Phenyl-2-(p-methoxyphenyl)-5,6,7,8-tetrahydro-3H-benzo[4,5]thieno[2,3-d]pyrimidin-4-one], the results for the inhibition at 1 µM in assay [1], in assay [2] and in assay [3] were 26%, -1.8% and 13%, respectively. Also, the inhibition at 10 µM in assay [1] was determined as 38.1%; in assay [2] it was 28.6%; in assay [3], 14.9%.
Consider `COc1cc(-c2nc3sc4c(c3c(=O)n2CC(C)C)C(Br)CCC4=O)cc(OC)c1OC` (stereo not drawn) [No. 135, 5-Bromo-3-isobutyl-2-(3,4,5-trimethoxyphenyl)-6,7-dihydro-3H,5H-benzo[4,5]thieno[2,3-d]pyrimidine-4,8-dione], for which the figures for the inhibition at 1 µM in assay [1], in assay [2] and in assay [3] were 54%, 21.8% and 19.1%, respectively. The inhibition at 10 µM in assay [1] is 96.6%; in assay [2] it was 93.1%; in assay [3], 34.6%.
For the molecule `O=c1c2c(nc(CCC3CCCC3)n1CCc1cccs1)sc1c(O)cccc12` [No. 643], in assay [1], the “% Inhibition HSD1 1 μM” value turned out to be 15.7% and the “% Inhibition HSD1 10 μM” value is 34.2%. Further, in assay [2], the “% Inhibition HSD3 1 μM” value worked out at 23.4% and the “% Inhibition HSD3 10 μM” value was 46.1%. In assay [3], the “% Inhibition HSD2 1 μM” value turned out to be 20.1% and the “% Inhibition HSD2 10 μM” value came to 43.3%.
In the case of `CCCCn1c(-c2cc(OC)c(OC)c(OC)c2)nc2sc3c(c2c1=O)CC(C)CC3` (stereo not drawn) [No. 691, 3-Butyl-6-methyl-2-(3,4,5-trimethoxyphenyl)-5,6,7,8-tetrahydro-3H-benzo[4,5]thieno[2,3-d]pyrimidin-4-one], the inhibition at 1 µM is 7% in assay [1], -5.3% in assay [2] and 2.1% in assay [3]. Also, the results for the inhibition at 10 µM in assay [1], in assay [2] and in assay [3] were 22.6%, 11.9% and -6.3%, respectively.
In the case of `CCCCn1c(-c2cc(OC)c(OC)c(OC)c2Br)nc2sc3c(O)cc(C)cc3c2c1=O` [No. 694, 3-Butyl-2-(2-bromo-3,4,5-trimethoxyphenyl)-8-hydroxy-6-methyl-3H-benzo[4,5]thieno[2,3-d]pyrimidin-4-one], the values for the inhibition at 1 µM in assay [1], in assay [2] and in assay [3] were 12.1%, 5.8% and 6.2%, respectively. Also, the inhibition at 10 µM was determined as 10.9% in assay [1], 21.1% in assay [2] and 15.8% in assay [3].
In the case of `COCCn1c(-c2cc(OC)c(OC)c(OC)c2)nc2sc3c(c2c1=O)CCCC3=O` [No. 109, 3-(2-Methoxyethyl)-2-(3,4,5-trimethoxyphenyl)-6,7-dihydro-3H,5H-benzo[4,5]thieno[2,3-d]pyrimidine-4,8-dione], the inhibition at 1 µM in assay [1] is -0.2%; in assay [2] it was 0.6%; in assay [3], 6%. Besides, the inhibition at 10 µM in assay [1] was determined as 20.7%; in assay [2] it was 11.6%; in assay [3] it was 9.7%.
`O=c1c2c(nc(CCC3CCCC3)n1CCc1ccccc1)sc1c(O)cccc12` [No. 627]: in assay [1], the “% Inhibition HSD1 1 μM” value was 25.2% and the “% Inhibition HSD1 10 μM” value was found to be 26.6%. Moreover, in assay [2], the “% Inhibition HSD3 1 μM” value was found to be 10.7% and the “% Inhibition HSD3 10 μM” value came out at 33.9%. Besides, in assay [3], the “% Inhibition HSD2 1 μM” value amounted to 27.1% and the “% Inhibition HSD2 10 μM” value was 22.6%.
In the case of `COc1cc(-c2nc3sc4c(c3c(=O)n2CC(C)C)CCC(Br)C4=O)cc(OC)c1OC` (stereo not drawn) [No. 115, 7-Bromo-3-isobutyl-2-(3,4,5-trimethoxyphenyl)-6,7-dihydro-3H,5H-benzo[4,5]thieno[2,3-d]pyrimidine-4,8-dione], the inhibition at 1 µM in assay [1] worked out at 22.9%; in assay [2], 7.6%; in assay [3] it was 18.7%. Further, the inhibition at 10 µM in assay [1] amounted to 70.3%; in assay [2], 20.7%; in assay [3], 19.5%.
For `COc1ccc(-c2nc3sc4c(Oc5ccccc5)c(C)ccc4c3c(=O)n2Cc2ccccc2)cc1` [No. 21, 3-Benzyl-7-methyl-2-(p-methoxyphenyl)-8-phenoxy-3H-benzo[4,5]thieno[2,3-d]pyrimidin-4-one], the inhibition at 1 µM in assay [1] was -1.8%; in assay [2] it was -4.8%; in assay [3], -0.8%. The inhibition at 10 µM in assay [1] is -4.4%; in assay [2], 6.4%; in assay [3], 12.7%.
